The values below come from patent publication US11752155B2, “Treatment of autism spectrum disorders, obsessive-compulsive disorder and anxiety disorders” (Rugen Holdings (Cayman) Limited, priority 2016, dated 2023).

pIC50, pKi: −log10 of the molar value. Counter-ions that a name gives are not always drawn. Like-named read-outs stand apart in the source and are kept apart here.

Data set [1] deals with native rat brain NR2B receptors (Rattus norvegicus (Rat), UniProt P35439+Q00960). In words: NR2B radioligand binding assay in rat brain using [3H] (E)-N1-(2-methoxybenzyl)-cinnamidine. How it is done: This example describes an NR2B receptor binding assay in rat brain using [^3H] […] The binding assay method was adapted from a previously described cellular human NR1a/NR2B cloned receptor assay (Kiss et al. Neurochem. Internatl. 2005, 46:453-464) to rat brain tissue. This assay serves as a selective measure of NR2B receptor binding activity in native rat brain receptors. Briefly, the brains of male Wistar rats were homogenized (Polytron) before centrifugation at 40,000×g for 15 minutes at 4° C. After 2 washes, the final pellet was homogenized and stored at −80° C. The protein concentration was determined by Bradford assay. [^3H] […] Non-specific binding was assessed in the presence of excess (10 μM) (E)-N1-(2-nethoxybenzyl)-cinnamidine.
native rat brain NR2B receptors, sequence (Q00960 27-1482, other chains not shown): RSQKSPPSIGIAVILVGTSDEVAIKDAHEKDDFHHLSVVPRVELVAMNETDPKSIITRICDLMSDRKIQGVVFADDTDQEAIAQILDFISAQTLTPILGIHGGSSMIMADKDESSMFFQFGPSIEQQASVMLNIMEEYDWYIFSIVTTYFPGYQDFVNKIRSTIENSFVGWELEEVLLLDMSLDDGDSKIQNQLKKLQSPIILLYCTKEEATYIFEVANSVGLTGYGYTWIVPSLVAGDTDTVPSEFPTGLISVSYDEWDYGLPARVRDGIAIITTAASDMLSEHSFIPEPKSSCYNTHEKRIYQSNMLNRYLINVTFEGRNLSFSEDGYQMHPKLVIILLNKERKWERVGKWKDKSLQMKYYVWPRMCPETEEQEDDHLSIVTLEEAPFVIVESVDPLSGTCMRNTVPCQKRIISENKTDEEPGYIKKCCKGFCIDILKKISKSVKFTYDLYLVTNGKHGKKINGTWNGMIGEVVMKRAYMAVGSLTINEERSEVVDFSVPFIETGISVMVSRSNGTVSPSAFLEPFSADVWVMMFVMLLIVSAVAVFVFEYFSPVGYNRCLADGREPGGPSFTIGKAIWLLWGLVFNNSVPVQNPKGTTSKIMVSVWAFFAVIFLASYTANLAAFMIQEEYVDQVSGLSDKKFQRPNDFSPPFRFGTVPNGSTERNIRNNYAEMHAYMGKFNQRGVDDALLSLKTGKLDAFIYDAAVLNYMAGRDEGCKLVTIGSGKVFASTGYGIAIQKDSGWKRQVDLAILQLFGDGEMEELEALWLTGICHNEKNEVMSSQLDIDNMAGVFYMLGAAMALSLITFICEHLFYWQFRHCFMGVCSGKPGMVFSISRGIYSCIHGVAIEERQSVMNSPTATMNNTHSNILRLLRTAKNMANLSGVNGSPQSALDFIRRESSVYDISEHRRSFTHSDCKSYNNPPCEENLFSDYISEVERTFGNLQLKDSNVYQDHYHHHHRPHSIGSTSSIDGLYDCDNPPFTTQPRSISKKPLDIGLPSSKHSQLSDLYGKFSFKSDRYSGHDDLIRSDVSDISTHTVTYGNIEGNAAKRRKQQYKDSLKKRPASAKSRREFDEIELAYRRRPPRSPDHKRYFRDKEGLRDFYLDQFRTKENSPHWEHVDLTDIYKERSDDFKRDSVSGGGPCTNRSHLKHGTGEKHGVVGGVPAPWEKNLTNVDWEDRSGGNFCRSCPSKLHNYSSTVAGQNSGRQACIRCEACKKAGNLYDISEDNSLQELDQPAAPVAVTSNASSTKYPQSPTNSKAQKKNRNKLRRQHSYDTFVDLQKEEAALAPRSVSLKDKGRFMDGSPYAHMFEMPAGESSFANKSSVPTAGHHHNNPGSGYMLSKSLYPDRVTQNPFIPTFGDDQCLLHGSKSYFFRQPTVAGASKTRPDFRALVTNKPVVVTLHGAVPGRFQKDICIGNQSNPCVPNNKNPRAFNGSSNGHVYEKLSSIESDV
Test compounds were solubilized at 10 mM in DMSO. Then the dilutions were performed with a constant solvent concentration (1% DMSO) in the assay. After incubation for 4.5 hours at room temperature, the assays were filtered on GF/3 filters pretreated with 0.3% (v/v) polyethylenimine (PEI) with a Packard system. The experiment was performed in duplicate (n=2).

The target of the next data set is human NR1/NR2B (Homo sapiens (Human), UniProt Q05586+Q13224). In words: NR2B antagonist activity: calcium influx (Fluo-4) assay in HEK293 cells. The data set is classed as cell-based. How it is done: Activation of the NR2A or NR2B subtype of NMDA receptor with glutamate as an agonist and glycine co-agonist on these cells results in calcium influx, which can be monitored with fluorescent indicator Fluo-4.
human NR1/NR2B, sequence (Q13224 27-1484, other chains not shown): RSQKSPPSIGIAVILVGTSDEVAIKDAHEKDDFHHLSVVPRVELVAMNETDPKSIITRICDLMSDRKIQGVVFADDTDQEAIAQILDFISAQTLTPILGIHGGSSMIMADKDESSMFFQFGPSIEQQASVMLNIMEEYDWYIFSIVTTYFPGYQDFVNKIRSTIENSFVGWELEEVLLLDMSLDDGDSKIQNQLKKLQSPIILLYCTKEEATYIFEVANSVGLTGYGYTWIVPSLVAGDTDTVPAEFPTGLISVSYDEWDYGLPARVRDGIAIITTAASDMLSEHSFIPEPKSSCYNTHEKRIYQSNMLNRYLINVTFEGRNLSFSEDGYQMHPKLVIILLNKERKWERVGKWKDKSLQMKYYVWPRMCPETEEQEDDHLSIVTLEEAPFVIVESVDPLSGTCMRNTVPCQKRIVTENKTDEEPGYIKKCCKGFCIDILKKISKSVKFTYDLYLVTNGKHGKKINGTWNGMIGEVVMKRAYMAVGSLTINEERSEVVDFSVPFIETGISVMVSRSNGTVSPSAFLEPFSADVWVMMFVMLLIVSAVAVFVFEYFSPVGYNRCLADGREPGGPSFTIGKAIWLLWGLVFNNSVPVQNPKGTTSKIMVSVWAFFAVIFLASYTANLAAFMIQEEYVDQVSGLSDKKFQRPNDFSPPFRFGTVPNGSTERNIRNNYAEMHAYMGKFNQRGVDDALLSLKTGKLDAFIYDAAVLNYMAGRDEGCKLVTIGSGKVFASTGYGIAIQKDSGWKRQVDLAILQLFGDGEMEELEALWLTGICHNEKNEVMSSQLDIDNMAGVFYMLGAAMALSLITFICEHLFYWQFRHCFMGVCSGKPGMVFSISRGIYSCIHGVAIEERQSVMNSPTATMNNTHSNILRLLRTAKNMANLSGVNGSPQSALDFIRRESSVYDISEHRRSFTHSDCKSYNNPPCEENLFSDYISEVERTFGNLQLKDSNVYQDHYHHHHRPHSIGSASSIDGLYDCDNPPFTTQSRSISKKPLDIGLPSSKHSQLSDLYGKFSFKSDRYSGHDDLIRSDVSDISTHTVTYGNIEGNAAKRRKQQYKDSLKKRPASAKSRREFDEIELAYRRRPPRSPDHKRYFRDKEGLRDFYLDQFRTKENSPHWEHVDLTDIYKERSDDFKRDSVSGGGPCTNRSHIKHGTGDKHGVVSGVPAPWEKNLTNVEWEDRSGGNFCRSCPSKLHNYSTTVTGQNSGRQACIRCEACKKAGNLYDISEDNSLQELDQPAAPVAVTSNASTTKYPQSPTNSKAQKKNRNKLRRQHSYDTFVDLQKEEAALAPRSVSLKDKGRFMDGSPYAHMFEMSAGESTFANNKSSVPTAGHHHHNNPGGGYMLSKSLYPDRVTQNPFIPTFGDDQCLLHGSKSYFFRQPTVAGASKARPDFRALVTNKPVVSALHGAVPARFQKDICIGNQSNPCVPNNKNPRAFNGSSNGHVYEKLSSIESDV
For experiments, the cells were seeded onto poly-D-lysine-coated 96-well black plates with clear bottom (Corning) at a density of ˜50,000 cells/well. After overnight culture, the growth medium was removed from the wells and the cells were incubated at 37° C. for 60 minutes in Hanks buffer containing 4 μM fluo-4-AM (Invitrogen) and 0.1% bovine serum albumin (BSA). After dye-loading, the cells were washed three times with Hanks buffer and incubated for 10 minutes at room temperature with various concentrations of test compounds prepared in Hanks buffer with 0.1% BSA. The cell plates were placed onto an FDSS Cell fluorescence reader (Hamamatsu). After 20 seconds of reading background fluorescence, agonist glutamate at final 100 µM and co-agonist glycine at final 50 μM were added to the cells to activate the receptor, and the resulting fluorescence changes were recorded and quantified. Based on the changes in fluorescence intensity, the pharmacological effect of test compounds was analyzed and the IC50 values derived from a non-linear least squares fitting of the concentration-dependent response to a standard logistic equation using Prism (Graphpad Software, Inc.): Amplitude=Max Amplitude/(1+(IC50/[antagonist])^n).

In the next data set the target is hERG channel (Homo sapiens (Human), UniProt Q12809). The data set is described as follows: hERG channel inhibition, whole cell patch clamp in HEK293 cells. Particulars: Table 1.3A. The data set is classed as cell-based.
hERG channel, sequence (Q12809 whole entry): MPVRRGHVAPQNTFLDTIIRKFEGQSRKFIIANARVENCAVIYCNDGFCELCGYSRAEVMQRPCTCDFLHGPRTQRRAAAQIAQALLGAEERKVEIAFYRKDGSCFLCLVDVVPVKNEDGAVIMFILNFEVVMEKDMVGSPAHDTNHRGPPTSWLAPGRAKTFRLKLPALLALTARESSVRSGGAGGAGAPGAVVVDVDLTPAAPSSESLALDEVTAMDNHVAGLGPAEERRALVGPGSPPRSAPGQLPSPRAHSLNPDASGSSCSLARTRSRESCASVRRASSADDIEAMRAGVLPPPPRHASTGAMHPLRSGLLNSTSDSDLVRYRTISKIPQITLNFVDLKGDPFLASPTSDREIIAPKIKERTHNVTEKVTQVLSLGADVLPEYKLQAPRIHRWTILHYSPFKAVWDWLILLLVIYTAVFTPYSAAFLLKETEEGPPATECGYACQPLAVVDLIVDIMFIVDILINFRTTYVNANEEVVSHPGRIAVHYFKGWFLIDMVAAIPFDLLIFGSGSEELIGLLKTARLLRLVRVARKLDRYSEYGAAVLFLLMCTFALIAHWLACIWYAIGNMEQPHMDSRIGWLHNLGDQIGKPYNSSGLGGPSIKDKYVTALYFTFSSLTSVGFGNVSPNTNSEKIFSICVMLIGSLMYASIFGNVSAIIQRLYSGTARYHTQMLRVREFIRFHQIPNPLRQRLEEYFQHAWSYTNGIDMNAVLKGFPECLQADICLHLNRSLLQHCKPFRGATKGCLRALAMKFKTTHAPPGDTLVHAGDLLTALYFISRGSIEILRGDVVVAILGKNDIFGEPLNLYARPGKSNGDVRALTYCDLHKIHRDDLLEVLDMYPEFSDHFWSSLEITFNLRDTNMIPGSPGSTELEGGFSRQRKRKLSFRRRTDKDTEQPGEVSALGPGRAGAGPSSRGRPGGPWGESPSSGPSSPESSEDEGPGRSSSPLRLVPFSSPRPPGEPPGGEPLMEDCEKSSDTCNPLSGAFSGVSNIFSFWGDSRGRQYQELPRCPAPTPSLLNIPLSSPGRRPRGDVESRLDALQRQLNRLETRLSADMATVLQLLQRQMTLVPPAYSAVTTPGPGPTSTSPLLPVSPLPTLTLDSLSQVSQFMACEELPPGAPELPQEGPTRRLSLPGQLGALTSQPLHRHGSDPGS
Data set [2] relates to wild type mice (male NMRI). In words: Marble Burying Test in wild type mice. The data set is classed as in vivo, mouse. The conditions noted are these: for change in vivo at 3 mg/kg / change in vivo at 10 mg/kg / change in vivo at 30 mg/kg: Mus musculus, ip, read-out: Percent Change in marbles buried relative to vehicle. How it is done:
Animals. Male NMRI mice (20-30 g body weight) were obtained from Janvier Labs (Le Genest-Saint Isle, France) and allowed to acclimate to the animal facility for at least 5 days. Twelve mice were studied per treatment group.
Compound formulation. The test compounds were prepared in a vehicle of 0.5% DMSO and 4% HP-β-CD, and administered orally (PO) or IP. The test compounds or vehicle were administered 20 minutes before the behavioral test described below. Clobazam (8 mg/kg IP), administered 30 minutes before the test, was used as the positive reference compound.
Clobazam was dispersed in 0.2% hydroxypropylmethylcellulose (HPMC) in physiological saline. Dosing volume was 10 mL/kg.
Testing procedure. The Marble Burying Test was conducted as previously described by Broekkamp et al. (Eur. J. Pharmacol. 1986, 126:223-229). Mice exposed to small novel objects (marbles) will bury them in the sawdust floor covering. Anxiolytics decrease the number of marbles buried at non-sedating doses. Mice were individually placed in transparent plastic cages (33×21×18 cm) with 5 cm of sawdust on the floor and 25 marbles grouped in the center of the cage. The cage was covered with an inverted plastic cage. Each test cage, together with the marbles, was impregnated with mouse odor before-hand by leaving 10 mice in the cage for 15 minutes. These mice then played no further role in the experiment. The number of marbles covered by sawdust (⅔ or more) was counted at the end of the 30-minute test. The test was performed blind (compounds versus vehicle).
Statistical analyses. Data were analyzed by comparing test compound-treated groups with the vehicle control group using the Kruskal-Wallis test followed by post-hoc Mann-Whitney U tests. Data comparing the reference compound with the vehicle were analyzed using the Mann-Whitney U test. A p value<0.05 was considered significant.

Data set [3] deals with wild type mice (male C57Bl/6). The data set is described as follows: Novelty Phobia Test in wild type mice. The format is in vivo, mouse. The conditions noted are these: for Percent Change in Novel Object Number of Nose Touches relative to vehicle control: pre-test time 10 min; for pattern of the dose-response function for bouts of nose touching: mouse, in vivo. How it is done: Animals. Male C57Bl/6 mice (18-30 g body weight; 6-8 weeks of age) were obtained from Slaccas (Shanghai, China) and allowed to acclimate to the animal facility for 7 days. Mice were group housed in plastic cages (no more than 4 animals per cage) on wood shavings with nesting material. All animals had free access to food (M01-F, Slaccas) and water. The animal facility was maintained under artificial lighting between 7:00 AM and 7:00 PM in a controlled ambient temperature of 22-24° C. and relative humidity between 50-60%.
Compound formulation. The test compounds were prepared in a vehicle of DMSO and HP-β-CD, and administered IP or PO. The test compounds or vehicle were administered at various times (10-20 minutes) before the behavioral test described below. Dosing volume was 10 mL/kg.
Testing procedure. The behavioral testing apparatus was a rectangular black Plexiglas, 2-chambered box, with no top or bottom (50 cm long, 26 cm wide and 15 cm tall) and allowed for the simultaneous testing of 2 mice. The box was placed on a laboratory bench. The chambers of the testing box were cleaned and fresh paper chip bedding was added between tests. Mice were brought to the experiment room in their home cages on the day of testing. Behavioral tests were conducted between 10:00 AM and 1:00 PM in dim light. After drug administration, a mouse was placed into a test chamber and allowed to explore for 10 minutes. After this habituation period, a novel object (e.g., a toy ball of 3 cm in diameter with spikes) was introduced to the center of the chamber for 5 minutes. For the entire 15-minute test period, video was recorded for offline analysis with Any-maze Video Tracking software (Stoelting Co., Wood Dale, Ill.). The total distance traveled during the entire 15 minutes and the number of bouts that each mouse touched the novel object during the last 5 minutes were measured.
Statistical analyses. Data are presented as means and SEMs. Data were analyzed using one-way analysis of variance (ANOVA; Prism, GraphPad Software Inc., San Diego, Calif.), followed by the post-hoc Dunnett's test to compare test compound-treated groups with the vehicle control. A p value<0.05 was considered significant.

[4] abbreviates: read-out: hNR2B IC50, Table 1.3A.
Setting [5] is: Table 1.1A, read-out: NR2B IC50.
Where [6] appears, read: Table 1.3A, read-out: hNR2B IC50.
Where [7] appears, read: rat brain NR2B receptors, mean of replicates, read-out: Arithmetic Mean Ki.

Procedure for hERG channel: The assay was performed on hERG channel stably expressed in HEK293 cells. The cells were cultured at 37° C. in a humidified CO2 incubator in the growth medium consisting of DMEM, 10% fetal bovine serum and antibiotics. Prior to the assay, the cells were seeded onto a 12-mm PDL-coated glass coverslip and cultured in a 35-mm Petri dish. After 16 to 40 hours culture, the coverslip was transferred into the chamber of OctaFlow perfusion system (ALA Instrument) and under a constant flow of extracellular solution (140 mM NaCl, 4 mM KCl, 1 mM MgCl2, 2 mM CaCl2, 10 mM HEPES, 10 mM D-glucose, pH 7.35, osmolarity 290). Whole cell patch clamping was performed with a glass micropipette filled with intracellular solution (120 mM KCl, 1.75 mM MgCl2, 5.4 mM CaCl2, 10 mM HEPES, 10 mM EGTA, and 4 mM ATP-K2, pH 7.2, osmolarity 310). Giga-seal was maintained during the test. The voltage control and current measurement were carried out using Axon amplifier 700B, Digidata 1440A and CLAMPEX10 software (Molecular Devices). Whole-cell hERG currents were recorded following the Petroski protocol: the cell was held at −80 mV, and the voltage step jumped from −80 to 30 mV and stay for 2 seconds with a 20-millisecond prepulse at −40 mV. After depolarization, the voltage was decreased to −40 mV and stay for 2 seconds, and returned back to −80 mV. Test compound was applied by quartz capillary tubes tip (200 m inner diameter), and the flow rate was controlled at 2-3 mL/min with OctaFlow perfusion system. Different concentrations of the compound were applied to the cells for 5 minutes and the hERG current was measured three times before, during and after compound treatment. The data were analyzed using Clampfit 10 software (Molecular Devices) to generate IC50 values.

As for `COc1ccccc1CNC(=N)/C=C/c1ccccc1` [(E)-N1-(2-methoxybenzyl)-cinnamidine, reference compound], the pKi (as a rule, the negative decadic logarithm of the Ki, by convention in mol/L) in data set [1] (high affinity site, rat brain membranes, read-out: inhibition constant (Ki), mean) was 9.66.

As for `Fc1ccc(C(F)(F)CN2CCC(Nc3ncnc4[nH]ccc34)CC2)nc1` [C-2^A′], the pIC50 (usually the IC50 on a negative log10 scale, so that one unit is a factor of ten) on human NR1/NR2B was 6.91.

For `Cc1ccc(C(F)(F)CN2CCC(Nc3ncnc4[nH]ccc34)CC2)nc1` [C-4^A′], the pIC50 at human NR1/NR2B and on human NR1/NR2B (setting [4]) was 7.46 each time.

In the case of `FC(F)c1ccc(C(F)(F)CN2CCC(Nc3ncnc4[nH]ccc34)CC2)nc1` [C-6^A′], on human NR1/NR2B (setting [5]), the negative logarithm of the IC50 (pIC50) is 7.51. For the same molecule, the pIC50 on human NR1/NR2B (setting [6]) is 7.51. At hERG channel, this molecule gave a negative-log IC50 (pIC50) of 5.16. Moreover, in data set [2], the change in vivo at 3 mg/kg is -23%, the change in vivo at 10 mg/kg was -62% and the change in vivo at 30 mg/kg was -100%.

For the molecule `FCc1ccc(C(F)(F)CN2CCC(Nc3ncnc4[nH]ccc34)CC2)nc1` [C-7^A′], the pIC50 on human NR1/NR2B was 7.85.

Consider `FC(F)Oc1ccc(C(F)(F)CN2CCC(Nc3ncnc4[nH]ccc34)CC2)nc1` [C-12^A′], for which, in data set [3] (IP (C-11 also PO)), the “bouts of nose touching of the novel object, efficacy” value is reported as “not efficacious”. Moreover, in data set [2], the change in vivo at 3 mg/kg is -14%, the change in vivo at 10 mg/kg was -56% and the change in vivo at 30 mg/kg is -100%.

With `Fc1cc(Cl)cnc1C(F)(F)CN1CCC(Nc2ncnc3[nH]ccc23)CC1` [C-16^A′], the pIC50 on human NR1/NR2B was 7.33; at human NR1/NR2B (setting [4]) it was 7.33; against hERG channel, 4.22.

Take `Cc1cnc(C(F)(F)CN2CCC(Nc3ncnc4[nH]ccc34)CC2)c(F)c1` [C-17^A′]: at human NR1/NR2B, the pIC50 was 7.36.

`Fc1cc(C(F)(F)F)cnc1C(F)(F)CN1CCC(Nc2ncnc3[nH]ccc23)CC1` [C-18^A′]: the pIC50 on human NR1/NR2B (setting [5]) was 7.08.

Regarding `Cc1ccc(C(F)(F)CN2CCC(N(C)c3ncnc4[nH]ccc34)CC2)nc1` [C-47^A′], the pIC50 at human NR1/NR2B (setting [5]) is 6.85.

For `Cc1ccc(C(F)(F)CN2CCC(Nc3ncnc4[nH]ccc34)CC2)cn1` [C-128^A′], the pIC50 at human NR1/NR2B and on human NR1/NR2B (setting [4]) was 7.05 each time.

With `Fc1ccc(C(F)(F)CN2CCC(Nc3ncnc4[nH]ccc34)CC2)cc1` [C-175^A′], the “Percent Change in Novel Object Number of Nose Touches relative to vehicle control” value in data set [3] (IP, 3 mg/kg) is 25.1%; in data set [3] (IP, 10 mg/kg), 139%; in data set [3] (IP, 30 mg/kg) it was −88.1%. Further, the “pattern of the dose-response function for bouts of nose touching” value in data set [3] is recorded as “inverted U-shaped dose-response function”. Further, the pIC50 on human NR1/NR2B is 7.66; at human NR1/NR2B (read-out: NR2B IC50, Table 1.4A) it was 7.66; on human NR1/NR2B (setting [4]), 7.66.

Take `FC(F)(CN1CCC(Nc2ncnc3[nH]ccc23)CC1)c1ccc(Cl)cc1` [C-176^A′]: the pIC50 at human NR1/NR2B was 7.59.

As for `Cc1ccc(C(F)(F)CN2CCC(Nc3ncnc4[nH]ccc34)CC2)cc1` [C-177^A′], on human NR1/NR2B, the pIC50 is 7.57.

With `FC(F)(F)c1ccc(C(F)(F)CN2CCC(Nc3ncnc4[nH]ccc34)CC2)cc1` [C-178^A′], in data set [3] (Mus musculus, ip, 20 min, IP, 0.3 mg/kg, pre-test time 20 min, read-out: Percent Change in Novel Object Number of Nose Touches relative to vehicle control), the change in vivo at 0.3 mg/kg is -4.12%. The change in vivo at 1 mg/kg in data set [3] (Mus musculus, ip, 20 min, IP, 1 mg/kg, pre-test time 20 min, read-out: Percent Change in Novel Object Number of Nose Touches relative to vehicle control) amounted to 50.3%. For the same molecule, in data set [3] (Mus musculus, ip, 20 min, IP, 3 mg/kg, pre-test time 20 min, read-out: Percent Change in Novel Object Number of Nose Touches relative to vehicle control), the change in vivo at 3 mg/kg is 110%. Also, the “pattern of the dose-response function for bouts of nose touching” value in data set [3] is “dose-dependent increases”. The pIC50 at human NR1/NR2B (setting [5]) was 7.19; on human NR1/NR2B (setting [6]), 7.19; at human NR1/NR2B (Table 1.4A, read-out: NR2B IC50) it was 7.19; at hERG channel it was 5.80.

Regarding `Cc1cnc(C(F)(F)CN2CCC(Nc3ncnc4[nH]ccc34)CC2)cn1` [C-230^A′], the pIC50 at human NR1/NR2B and on human NR1/NR2B (setting [4]) was 7.06 in each case.

Turning to `Cc1ccc(COC(=O)N2CC[C@H](CNc3cnc(C#N)cn3)C(F)(F)C2)cc1` [E1-21.30^B′, (R)-4-methylbenzyl 4-(((5-cyanopyrazin-2-yl)amino)methyl)-3,3-difluoropiperidine-1-carboxylate], the pKi in data set [1] (setting [7]) is 7.51.

For `Cc1cnc(NC[C@H]2CCN(C(=O)OCc3ccc(Cl)cc3)CC2(F)F)cn1` [E1-21.33^B′, (R)-4-chlorobenzyl 3,3-difluoro-4-(((5-methylpyrazin-2-yl)amino)methyl)piperidine-1-carboxylate mesylate], the negative-log Ki (pKi) in data set [1] (setting [7]) was 7.96.

Consider `Cc1cnc(NC[C@H]2CCN(C(=O)OCc3ccc(F)cc3)CC2(F)F)cn1` [E1-21.34^B′, (R)-4-fluorobenzyl 3,3-difluoro-4-(((5-methylpyrazin-2-yl)amino)methyl)piperidine-1-carboxylate mesylate], for which the pKi in data set [1] (setting [7]) is 7.80.

Take `Cc1ccc(COC(=O)N2CC[C@H](CNc3ncc(C(F)(F)F)cn3)C(F)(F)C2)cc1` [E1-22.29^B′, (R)-4-methylbenzyl 3,3-difluoro-4-(((5-(trifluoromethyl)pyrimidin-2-yl)amino)methyl)piperidine-1-carboxylate methanesulfonate]: the pKi in data set [1] (setting [7]) was under 6.00.

For `CN1C(=O)CC(=O)N(c2ccccc2)c2cc(Cl)ccc21` [clobazam, Clobazam, reference compound], the “number of buried marbles, positive reference” value in data set [2] (8 mg/kg IP, 30 minutes before the test, data not shown) was “significantly reduced the number of buried marbles”.
